Laboratory results as given in patent publication US7608640B2, “Glycine betaine and its use” (priority 2001, dated 2009).
Where “and” joins values, the source holds several entries; their conditions need not be identical. Identical values can stand only once.

Experiments:
[1] = tested on: arterial thrombosis induced by laser beam in the mesenteric microcirculation of the rat; assay: Laser-induced thrombosis in the mesenteric microcirculation; format: in vivo
From the text: A/Principle of Laser-induced Thrombosis (Seiffge D. et al., 1989; Weichter W. et al., 1983).
In this model, lesion of the vascular wall is induced by a laser beam. This beam causes a limited lesion of the vascular endothelium (only 1 to 2 cells are destroyed). This laying bare of the sub-endothelium, which is a thrombogenetic surface, results in the adherence of platelets via […]. This adherence of platelets is followed by the activation thereof. They form pseudopods and secrete the content of their granules. This activation results in the appearance of glycoproteins IIb-IIIa which are necessary for the aggregation of the platelets between them. This lesion is induced in the mesenteric microcirculation of the rat. It is immediately followed by the formation of a thrombus (in a few seconds). This thrombus, which rapidly enlarges under the influence of the flow of blood, embolises before being formed again.
By this manes, the assessment of the effect of glycine betaine was conducted pharmacologically in conjunction with the study of two active molecules used as a reference; namely acetylsalicylic acid and heparin (of low molecular weight). The assessment also involved the activity of glycine betaine in relation to the prothrombotic effects induced by contrasting products.
Male Wistar rats were used for these tests. They weighed between 200 and 250 grams. After an 8-day stabilisation period, the rats were subjected to fasting for 12 hours. They were then anaesthetised, glycine betaine was administered subcutaneously, and the mesentery (laser) or vena cava (stasis) was opened at the end of the experiments.

platelet aggregation = assay: Whole blood platelet aggregation ex vivo (aggregometer); format: in vivo, rat; conditions: for Amplitude (platelet aggregation induced ex vivo) / Velocity (platelet aggregation induced ex vivo): 5 mg/kg; for Amplitude (platelet aggregation) / Velocity (platelet aggregation): rat, after laser firings, glycine betaine 5 mg/kg, acetylsalicylic acid 100 mg/kg, heparin 2 mg/kg
Experimental: The aggregation is made in accordance to the methods of Cardinal & Flower. Pharmacol. Method. 1980, and to American Journal of Clinical Pathology, 1989; 92: 676-679, Sureney. J D. Whole Blood aggregometry. After a keeping period of 8 days, the rats are subjected to a fasting for 12 hours. […] The rats are then anaesthetised with sodium Thiopental administered at a dose of 200 mg/Kg and the blood samples are taken by intracardiac puncture on a trisodium citrate solution (1 volume of solution at 3.8% citrate for 9 volumes of blood).

[2] = tested on: heparin-induced bleeding in rat; assay: Tail cut bleeding test in heparinized rat; format: in vivo; conditions: for IHT (hemorrhage time), Mean / IHT (hemorrhage time), individual rats: Example 35, betaine 10 mg/kg and/or heparin 5 mg/kg s.c. 1 hour prior to testing
Experimental: This example determined the effect of betaine on hemorrhage time in a heparinized rat. Forty male Wistar rats were purchased from Charles River, France and were acclimated for one week prior to testing. Each animal was weighed prior to testing (weights ranged from 225 to 275 g, mean weight=245 g) and the group of 40 rats was further divided into 4 groups of 10 rats each. One group acted as a control group and each rat in this group received a subcutaneous injection of saline 1 hour prior to testing. The second group received a 10 mg/kg subcutaneous injection of betaine 1 hour prior to testing. The third group received a 5 mg/kg subcutaneous injection of heparin 1 hour prior to testing and the last group received a subcutaneous injection consisting of 5 mg/kg heparin plus 10 mg/kg betaine 1 hour prior to testing. The rats were anesthetized by intramuscular injection of Nesdonal (200 mg/kg). The products were then injected subcutaneously in the abdomen one hour before the tail cut induced bleeding test. For the group receiving the combined heparin/betaine (group 4) injections, the heparin and betaine were injected using different syringes at different sites of administration (left and right sides of the abdomen) in order to avoid any direct reactions between the two substances.
The tail of the anaesthetized rat was dipped for 5 minutes in a water bath at 37° C. in order to induce a dilation of the peripheral vessels. The tail was then removed from the water bath and sectioned at 10-15 mm from the extremity. The chronometer was then started. The IHT is defined as the time, in seconds, between the tail section and the end of the hemorrhage or bleeding. The end of hemorrhage is defined as the moment when the last drop of blood is collected from the tail and when no other drop is observed during 180 seconds. The amount of blood was estimated by visual inspection. […] Betaine has no significant effect on bleeding time and combined use of betaine with heparin almost restored the bleeding time to normal, thereby indicating an antidote-like activity of betaine against heparin.
This example investigated the effect of delayed betaine administration on active heparin-induced bleeding (antidote type administration) in a rat. Twelve male Wistar rats were purchased from Charles River, France and were acclimated for one week prior to testing. Each rat was weighed prior to testing (weights ranged from 245-280 g with a mean of 260 g) and the group of twelve was divided into 3 subgroups. Three rats were in the control group which received two saline injections, one at T0, one at T0+45 minutes. Three rats were in the […] group which received one injection of heparin (5 mg/kg) at T0. Six rats were in the antidote group which received a heparin injection (5 mg/kg) at T0, and a betaine injection (10 mg/kg) at T0+45 minutes. […] However, at the end of the bleeding experiments, blood was sampled by intracardiac puncture on Na-citrate (3.8%, 1:10) and plasmas of the collected blood samples were kept at −20° C. for future biological assays. Chemical products were also identical.
This example investigated the effect of delayed betaine administration in an antidote type administration inhibited the bleeding time and volume of blood loss induced by heparin treatment in a rat. Twenty male Wistar rats were purchased from Charles River, France and were acclimated for one week prior to the tests. Each rat was weighed prior to testing (weights ranged from 240-340 g with a mean weight of 275 g) and divided into 2 groups of 10 animals each. One group received an injection of heparin (5 mg/kg) at T0. The second group received a heparin injection (5 mg/kg) at T0, and a betaine injection (10 mg/kg) at T0+30 minutes. Both groups were subjected to a bleeding test at T0+60 minutes. The testing was performed using the previously described methodology with slight modifications. The tails were sectioned at 5-8 mm from the extremity. […]

[3] = value taken for the deconvolution technique; cited from earlier work
[4] = 5 mg/ml/kg, Group I: injected 1 hour before
[5] = 5 mg/ml/kg, Group II: injected 2 hours before
[6] = 5 mg/ml/kg, Group III: injected 3 hours before
[7] = 5 mg/ml/kg, Group IV: injected 4 hours before
[8] = 24 hours after sub cutaneous 10 mg/kg
[9] = 24 hours after sub cutaneous administration, title 20 mg/kg, table line 10 mg/kg
[10] = rat, after laser firings, glycine betaine 5 mg/kg, acetylsalicylic acid 100 mg/kg, heparin 2 mg/kg
[11] = Group I: injected 1 hour before
[12] = Group II: injected 2 hours before
[13] = Group III: injected 3 hours before
[14] = Group IV: injected 4 hours before
[15] = Example 36, heparin 5 mg/kg at T0, betaine 10 mg/kg at T0+45 minutes, bleeding test at T0+75 minutes
[16] = Example 37, heparin 5 mg/kg at T0, betaine 10 mg/kg at T0+30 minutes, test at T0+60 minutes

Work on `C[N+](C)(C)CC(=O)O` [Glycine betaine] yielded a Duration of embolisation [1, 4] of 0.51 ± 0.5 min, a Number of emboles [1, 4] of 1.8 ± 1.44 and a Number of firings [1, 4] of 3.49 ± 1.07. The Duration of embolisation [1, 5] was 0.3 ± 0.23 min, the Number of emboles [1, 5] was 1.4 ± 1.18 and the Number of firings [1, 5] was 3.0 ± 1.5. It also gave a Duration of embolisation [1, 6] of 1.00 ± 0.5 min, a Number of emboles [1, 6] of 1.99 ± 0.4 and a Number of firings [1, 6] of 2.50 ± 1.25. The Duration of embolisation [1, 7] was 1.5 ± 0.6 min, the Number of emboles [1, 7] was 2.2 ± 0.69 and the Number of firings [1, 7] was 2.7 ± 1.0. The Embolisation time [1, 8] was 0 ± 0 min, the Number of emboles [1, 8] was 1 +/− 0 and the “Number of laser firing” value [1, 8] was 3.33 +/− 0.57. For the same compound, the Embolisation time [1, 9] was 0 ± 0 min, the Number of emboles [1, 9] was 0.66 +/− 0.57 and the “Number of laser firing” value [1, 9] was 3.33 +/− 0.57. The Embolisation time ([1]; oral 50 mg/kg, 1 hour) was 0 ± 0 min, the “Number of laser firing” value ([1]; oral 50 mg/kg, 1 hour) was 4 +/− 0 and the Embolisation time ([1]; oral 50 mg/kg, 6 hours) was 1 ± 0 min. For the same compound, the Number of emboles ([1]; oral 50 mg/kg, 6 hours) was 2.33 +/− 0.57, the “Number of laser firing” value ([1]; oral 50 mg/kg, 6 hours) was 3.66 +/− 0.57 and the Embolisation time ([1]; oral 50 mg/kg, 24 hours) was 1 ± 0 min. The Number of emboles ([1]; oral 50 mg/kg, 24 hours) was 2.33 +/− 0.57, the “Number of laser firing” value ([1]; oral 50 mg/kg, 24 hours) was 2.33 +/− 0.57 and the Number of emboles ([1]; oral 50 mg/kg, 48 hours) was 4.33 +/− 0.57. For the same compound, the Duration of embolisation [1, 10] was 1 ± 0 min, the “Number of emboles or embolies” value [1, 10] was 2 ± 0 and the “Amplitude (platelet aggregation induced ex vivo)” value (platelet aggregation; [11]) was 11.33 ± 3.08 Ohms. For the same compound, the “Velocity (platelet aggregation induced ex vivo)” value (platelet aggregation; [11]) was 8.2 ± 0.2 ohm/minute, the “Amplitude (platelet aggregation induced ex vivo)” value (platelet aggregation; [12]) was 13.2 ± 3.5 Ohms and the “Velocity (platelet aggregation induced ex vivo)” value (platelet aggregation; [12]) was 9.3 ± 1.8 ohm/minute. For the same compound, the “Amplitude (platelet aggregation induced ex vivo)” value (platelet aggregation; [13]) was 12.7 ± 4.1 Ohms, the “Velocity (platelet aggregation induced ex vivo)” value (platelet aggregation; [13]) was 8.7 ± 1.3 ohm/minute and the “Amplitude (platelet aggregation induced ex vivo)” value (platelet aggregation; [14]) was 13 ± 2.8 Ohms. The “Velocity (platelet aggregation induced ex vivo)” value (platelet aggregation; [14]) was 8.7 ± 1.15 ohm/minute, the “Amplitude (platelet aggregation)” value (platelet aggregation) was 0.66 ± 1.15 ohms and the “Velocity (platelet aggregation)” value (platelet aggregation) was 1.66 ± 1.15 ohms/min. The “IHT (hemorrhage time), Mean” value [2] was 169.9 s, the “IHT (hemorrhage time), individual rats” value [2] was 166 s and 180 s and 162 s and 173 s and 194 s and 203 s and 159 s and 142 s and 123 s and 197 s and the “Volume of blood loss by visual inspection” value ([2]; Example 36, antidote group versus heparin group) was “significantly reduced”. For the same compound, the Elimination half life [3] was 7.8 h.
For Heparin, the Duration of embolisation [1, 10] was 1 ± 0 min, the “Number of emboles or embolies” value [1, 10] was 2.67 ± 0.52 and the “Amplitude (platelet aggregation)” value (platelet aggregation) was 4.33 ± 0.57 ohms. For the same compound, the “Velocity (platelet aggregation)” value (platelet aggregation) was 2.66 ± 0.50 ohms/min, the “IHT (hemorrhage time), Mean” value [2] was 690.9 s and the “IHT (hemorrhage time), individual rats” value [2] was 679 s and 767 s and 680 s and 734 s and 702 s and 663 s and 735 s and 567 s. The “Bleeding Time, individual rats” value [2, 15] was 658 s and 597 s and 533 s, the “Bleeding time, Mean” value [2, 15] was 596 s and the “Bleeding Time, individual rats” value [2, 16] was 400 s and 345 s and 405 s and 370 s and 290 s and 265 s and 350 s and 300 s and 315 s and 275 s. The “Bleeding time, Mean” value [2, 16] was 331.5 s, the “Volume (blood loss), Mean” value [2, 16] was 1294 µL and the “Volume (blood loss), individual rats” value [2, 16] was 1650 μl and 1300 μl (2×) and 1800 μl and 1380 μl and 1200 μl and 940 μl and 1140 μl and 1130 μl and 1100 μl.
